According to PubChem BioAssay AID330 (DTP/NCI, 2004):
Values joined by “and” are separate entries in the source; they are usually repeats but may differ in a detail not shown here. Equal entries are not always repeated. Inconclusive results and toxic doses are left out. The calls were made as follows: active = survival T/C of 150% or more; inactive = T/C below 125% in these data.

Test system: P388 leukemia ip, CD2F1 mice, survival T/C
Assay: NCI In Vivo Anticancer Drug Screen. Data for tumor model P388 Leukemia (intraperitoneal) in CD2F1 (CDF1) mice
Details: endpoint: median survival time, higher = longer survival
Summary of the method: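 Mice carrying the transplanted tumor received test compound or vehicle. Survival was recorded in each group, and the value is the treated-group measurement divided by that of the vehicle-treated control group.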

[1] = dose: 25.0 mg/kg/injection, schedule: Q01DX009 (ip), vehicle: Klucel (hydroxypropylcellulose) (HPC)
[2] = dose: 50.0 mg/kg/injection, schedule: Q01DX009 (ip), vehicle: Klucel (hydroxypropylcellulose) (HPC)
[3] = dose: 100.0 mg/kg/injection, schedule: Q01DX009 (ip), vehicle: Klucel (hydroxypropylcellulose) (HPC)
[4] = dose: 12.5 mg/kg/injection, schedule: Q01DX009 (ip), vehicle: saline
[5] = dose: 25.0 mg/kg/injection, schedule: Q01DX009 (ip), vehicle: saline
[6] = dose: 50.0 mg/kg/injection, schedule: Q01DX009 (ip), vehicle: saline
[7] = dose: 100.0 mg/kg/injection, schedule: Q01DX009 (ip), vehicle: saline
[8] = dose: 100.0 mg/kg/injection, schedule: Q04DX003 (ip), vehicle: Klucel (hydroxypropylcellulose) (HPC)
[9] = dose: 200.0 mg/kg/injection, schedule: Q04DX003 (ip), vehicle: Klucel (hydroxypropylcellulose) (HPC)
[10] = dose: 400.0 mg/kg/injection, schedule: Q04DX003 (ip), vehicle: Klucel (hydroxypropylcellulose) (HPC)
[11] = dose: 60.0 mg/kg/injection, schedule: Q01DX005 (ip), vehicle: saline with Tween-80
[12] = dose: 120.0 mg/kg/injection, schedule: Q01DX005 (ip), vehicle: saline with Tween-80
[13] = dose: 50.0 mg/kg/injection, schedule: Q01DX005 (ip), vehicle: saline with Tween-80
[14] = dose: 100.0 mg/kg/injection, schedule: Q01DX005 (ip), vehicle: saline with Tween-80
[15] = dose: 200.0 mg/kg/injection, schedule: Q01DX005 (ip), vehicle: saline with Tween-80
[16] = dose: 25.0 mg/kg/injection, schedule: Q01DX005 (ip), vehicle: saline with Tween-80
[17] = dose: 50.0 mg/kg/injection, schedule: Q01DX005 (ip), vehicle: saline
[18] = dose: 100.0 mg/kg/injection, schedule: Q01DX005 (ip), vehicle: saline
[19] = dose: 200.0 mg/kg/injection, schedule: Q01DX005 (ip), vehicle: saline
[20] = dose: 100.0 mg/kg/injection, schedule: Q01DX001 (ip), vehicle: saline with Tween-80
[21] = dose: 200.0 mg/kg/injection, schedule: Q01DX001 (ip), vehicle: saline with Tween-80

Measured: T/C

CC/C(=C(\c1ccccc1)c1ccc(OCCN(C)C)cc1)c1ccccc1
inactive: dose: 0.78 mg/kg/injection, schedule: Q01DX009 (ip), vehicle: suspension in saline 94 % of control | dose: 1.56 mg/kg/injection, schedule: Q01DX009 (ip), vehicle: suspension in saline 94 % of control | dose: 3.12 mg/kg/injection, schedule: Q01DX009 (ip), vehicle: suspension in saline 94 % of control | dose: 6.25 mg/kg/injection, schedule: Q01DX009 (ip), vehicle: suspension in saline 98 % of control | dose: 12.5 mg/kg/injection, schedule: Q01DX009 (ip), vehicle: Klucel (hydroxypropylcellulose) (HPC) 105 % of control | dose: 12.5 mg/kg/injection, schedule: Q01DX009 (ip), vehicle: suspension in saline 100 % of control | [1] 102 % of control | dose: 25.0 mg/kg/injection, schedule: Q01DX009 (ip), vehicle: suspension in saline 104 % of control | dose: 50.0 mg/kg/injection, schedule: Q01DX004 (ip), vehicle: saline with Tween-80 92 % of control | [2] 110 % of control | dose: 50.0 mg/kg/injection, schedule: Q01DX009 (ip), vehicle: suspension in saline 101 % of control | dose: 100.0 mg/kg/injection, schedule: Q01DX004 (ip), vehicle: saline with Tween-80 82 % of control | [3] 117 % of control | dose: 100.0 mg/kg/injection, schedule: Q01DX009 (ip), vehicle: suspension in saline 92 % of control

N#C/C1=C(\C#N)N=Cc2ccccc2NCCNc2ccccc2C=N1
inactive: dose: 100.0 mg/kg/injection, schedule: Q04DX003 (ip), vehicle: saline 91 % of control | dose: 200.0 mg/kg/injection, schedule: Q04DX003 (ip), vehicle: saline 98 % of control | dose: 400.0 mg/kg/injection, schedule: Q04DX003 (ip), vehicle: saline 100 % of control

NCCNCC[OH2+].NCCNCC[OH2+].[Ni+2].[O-][Cl+3]([O-])([O-])[O-]
inactive: [4] 100 % of control | [5] 93 % of control | [6] 106 % of control and 93 % of control

CN1CCCN(C(c2ccccc2)c2ccc(Br)cc2)CC1 (stereo not drawn)
inactive: [5] 97 % of control | [6] 103 % of control | [7] 101 % of control and 91 % of control

O=C(O)Cc1ccc(C2CCCCC2)cc1
inactive: [8] 90 % of control | [9] 100 % of control | [10] 100 % of control

CSC(=S)N/N=C(\C)c1cccc(C)n1
inactive: dose: 7.5 mg/kg/injection, schedule: Q01DX005 (ip), vehicle: saline with Tween-80 100 % of control | dose: 15.0 mg/kg/injection, schedule: Q01DX005 (ip), vehicle: saline with Tween-80 102 % of control | dose: 30.0 mg/kg/injection, schedule: Q01DX005 (ip), vehicle: saline with Tween-80 105 % of control | [11] 100 % of control | [12] 87 % of control | dose: 240.0 mg/kg/injection, schedule: Q01DX005 (ip), vehicle: saline with Tween-80 113 % of control

COc1ccc2c(c1)CC(C)[N+]([O-])=C2C(F)(F)F (stereo not drawn)
inactive: [13] 99 % of control | [14] 102 % of control | [15] 104 % of control

CN1CCC(=C2c3ccccc3CCc3sccc32)CC1
inactive: [4] 103 % of control | [5] 104 % of control | [6] 101 % of control and 103 % of control | [7] 108 % of control

Cn1c(=O)c2nncnc2n(C)c1=O
inactive: [16] 96 % of control | [13] 93 % of control | [14] 93 % of control | [15] 94 % of control

CC(C)(C)N1COC2CCCC21 (stereo not drawn)
inactive: dose: 12.5 mg/kg/injection, schedule: Q01DX005 (ip), vehicle: saline 108 % of control | dose: 25.0 mg/kg/injection, schedule: Q01DX005 (ip), vehicle: saline 100 % of control

CN(C)CCSc1nc2ccccc2s1
inactive: dose: 60.0 mg/kg/injection, schedule: Q01DX005 (ip), vehicle: saline 101 % of control | dose: 120.0 mg/kg/injection, schedule: Q01DX005 (ip), vehicle: saline 104 % of control

CN(C)C1C(=O)C(C(=O)NCNC(C=O)C(O)C(O)C(O)CO)=C(O)C2(O)C(=O)C3=C(O)c4c(O)cccc4C(C)(O)C3CC12 (stereo not drawn)
inactive: [17] 100 % of control | [18] 99 % of control | [19] 96 % of control

CCC12OC(COc3ccccc3)CN1CCN2c1ccccc1 (stereo not drawn)
inactive: [11] 97 % of control | [12] 98 % of control

CC(=O)Nc1ccc(N=Nc2c(O)c(S(=O)(=O)O)cc3cc(S(=O)(=O)O)ccc23)cc1
inactive: [6] 102 % of control | [7] 97 % of control | dose: 200.0 mg/kg/injection, schedule: Q01DX009 (ip), vehicle: saline 103 % of control

COC(=O)c1cc(=O)n(-c2ccccc2F)c(SC)n1
inactive: dose: 25.0 mg/kg/injection, schedule: Q04DX003 (ip), vehicle: Klucel (hydroxypropylcellulose) (HPC) 105 % of control | dose: 50.0 mg/kg/injection, schedule: Q04DX003 (ip), vehicle: Klucel (hydroxypropylcellulose) (HPC) 104 % of control | [8] 106 % of control

NC(=O)c1ccc(-c2csc(=S)[nH]2)s1
inactive: dose: 50.0 mg/kg/injection, schedule: Q01DX009 (ip), vehicle: saline with Tween-80 100 % of control and 105 % of control | dose: 100.0 mg/kg/injection, schedule: Q01DX009 (ip), vehicle: saline with Tween-80 101 % of control and 108 % of control | dose: 200.0 mg/kg/injection, schedule: Q01DX009 (ip), vehicle: saline with Tween-80 96 % of control

C#Cc1cccc(N=Cc2cc(Cl)cc(Br)c2O)c1
inactive: [13] 105 % of control | [14] 102 % of control | [15] 107 % of control

CSC(=S)Nc1nc2ccc(C)cc2s1
inactive: [8] 95 % of control | [9] 88 % of control | [10] 92 % of control

CN(C)CC/C([O-])=N/[n+]1c2c(nc3ccccc31)-c1cccc3cccc-2c13
inactive: [1] 109 % of control | [2] 111 % of control | [3] 116 % of control

CCOC(=O)CCCCCO
inactive: [20] 104 % of control | [21] 104 % of control | dose: 400.0 mg/kg/injection, schedule: Q01DX001 (ip), vehicle: saline with Tween-80 106 % of control

CCOC(=O)n1oc2c(Br)cc(Br)cc2c1=O
inactive: dose: 50.0 mg/kg/injection, schedule: Q04DX002 (ip), vehicle: Klucel (hydroxypropylcellulose) (HPC) 105 % of control | dose: 100.0 mg/kg/injection, schedule: Q04DX002 (ip), vehicle: Klucel (hydroxypropylcellulose) (HPC) 99 % of control | dose: 200.0 mg/kg/injection, schedule: Q04DX002 (ip), vehicle: Klucel (hydroxypropylcellulose) (HPC) 101 % of control

OCC1OC(Oc2ncccn2)C(O)C1O (stereo not drawn)
inactive: [17] 97 % of control | dose: 50.0 mg/kg/injection, schedule: Q01DX005 (ip), vehicle: suspension in saline 99 % of control | [18] 99 % of control | dose: 100.0 mg/kg/injection, schedule: Q01DX005 (ip), vehicle: suspension in saline 99 % of control | [19] 101 % of control | dose: 200.0 mg/kg/injection, schedule: Q01DX005 (ip), vehicle: suspension in saline 98 % of control | dose: 400.0 mg/kg/injection, schedule: Q01DX005 (ip), vehicle: saline 104 % of control | dose: 400.0 mg/kg/injection, schedule: Q01DX005 (ip), vehicle: suspension in saline 99 % of control

OC1CC2c3ccccc3C1c1ccccc12 (stereo not drawn)
inactive: dose: 50.0 mg/kg/injection, schedule: Q01DX005 (ip), vehicle: Klucel (hydroxypropylcellulose) (HPC) 95 % of control | dose: 100.0 mg/kg/injection, schedule: Q01DX005 (ip), vehicle: Klucel (hydroxypropylcellulose) (HPC) 99 % of control | dose: 200.0 mg/kg/injection, schedule: Q01DX005 (ip), vehicle: Klucel (hydroxypropylcellulose) (HPC) 100 % of control

Oc1cc2ccccc2c(-c2c(O)c(O)cc3ccccc23)c1O
inactive: [16] 111 % of control | [13] 113 % of control | [20] 113 % of control and 115 % of control | [14] 112 % of control | [21] 113 % of control and 121 % of control | dose: 600.0 mg/kg/injection, schedule: Q01DX001 (ip), vehicle: saline with Tween-80 124 % of control
